Here are results for one compound from patent US12390409B2 (NeueRe, LLC, priority 2018, dated 2025).

The subject of one data set is skin of volar forearm. Description: Dose-ranging study of ambroxol on TEWL, 99.9% DMSO, volar forearm. Format: in vivo, human. The note with it: ambroxol concentrations much lower than 2.0 mM (20 micromolar to 2.0 mM tested) in 99.9% DMSO, 10 microliter, 1 hr and 10 hr post-application. The source says:
Apart from these additional concentrations, conditions and the formulation (99.9% DMSO) were essentially the same as those described in Example 1, except in this experiment 10 microliter aliquots were spread and the skin region tested was on the volar forearm.
The data in FIG. 3 are presented as histograms, with only start points (at 1 hr post-application) and end-points (at 10 hr post application) shown. Two things are notable about this experiment. […] This may reflect the relative delicacy of volar forearm skin compared to skin of the upper thigh, such that the same treatment may be more or less harsh depending on the skin area treated. […] [Symbols: Open rectangles, skin TEWL measured at 1 hr post-application; hatched rectangles, skin TEWL measured at 10 hr post-application; dashed line, average TEWL value (7.8±1.1 g/m^2-hr) of untreated skin from areas adjacent to the treatment sites. All measurements were taken in quadruplicate (n=4) or quintuplicate (n=5). Shown for each value are the error bars (standard deviation of quadruplicate or quintuplicate measurements.]

For another data set, the system named is skin. The conditions noted are these: other case reports, positive patch test; cited from earlier work.
For a further data set, the system named is human skin. Description: TEWL recovery after disruption by 60:40 DMSO:water formulation, upper thigh. It is filed as in vivo. The conditions noted are these: 2.0 mM ambroxol in 60:40 (v/v) DMSO:water. The procedure: 60% DMSO has been reported to be the minimum concentration of DMSO needed to disrupt ceramide-containing lipid bilayers in skin (Notman et al Biophysical Journal 93:2056 [2007]).
All time points were measured in duplicate or triplicate.
Also like in the experiment shown in FIG. 1, there is an enduring improvement of approximately 5 g/m^2-h in the rate of water loss of the ambroxol-treated skin relative to skin treated with the DMSO:water formulation alone. […] Shown for each point are the error bars (standard deviation of duplicate or triplicate measurements); for some points the error bars are less visible because they were smaller than the diameter of the symbol representing that point.]

The next data set deals with human (adult male) skin. Description: TEWL recovery after skin barrier disruption by 99.9% DMSO, upper thigh. The note with it: 2.0 mM ambroxol in 99.9% DMSO. Format: in vivo. From the text:
Dimethyl sulfoxide (DMSO) is a well-known skin permeability enhancer that is thought to act by disrupting ceramide-containing lipid bilayers of the stratum corneum and thereby compromising the permeability barrier of the skin (Agner and Serup, Clin. Expt. Dermatology 14:214 [1989]; Notman et al Biophysical Journal 93:2056 [2007]). Among its many protective functions, this lipid barrier regulates transepidermal water loss (TEWL) and is vital for the prevention of skin dryness in mammals. Thus, it is accepted by researchers in the field, that measurements of TEWL can be used to directly assay the integrity of the skin permeability barrier (Fluhr et al Experimental Dermatology 15:483 [2006]).
All experiments were conducted in a narrow range of relative humidity (30-40%) and at stable room temperatures of 18-22° C.
Transepidermal water loss (TEWL) measurements, in units of g/m^2-h, were taken at various time points after applying the solutions (at t=0) to the skin sites. TEWL values were assessed using a wireless closed-chamber system (VapoMeter, Delphin Technologies Ltd., Kuopio, Finland) that automatically calculates water evaporation rates over a small area (˜1.3 cm^2); each measurement took about 10 s (Fluhr et al Experimental Dermatology 15:483 [2006]). […] All time points were measured in duplicate or triplicate. […] The improvement in TEWL, a difference of 4-6 g/m^2-h between the two curves, then maintains itself over the remaining course of the experiment. […] Shown for each point are the error bars (standard deviation of duplicate or triplicate measurements); for some points the error bars are less visible because they were smaller than the diameter of the symbol representing that point.]

Regarding `Nc1c(Br)cc(Br)cc1CN[C@H]1CC[C@H](O)CC1` [ambroxol, trans-4-(2-amino-3,5-dibromobenzylamino) cyclohexanol], the “ameliorating the increase in TEWL caused by the DMSO insult” value in the data set with skin of volar forearm is “positive results”. Besides, the “adverse skin reaction in case reports” value in the data set on skin is recorded as “systemic contact dermatitis”. For the same compound, the “time of the burst of TEWL improvement” value in the data set on human skin is “in the first hour post-application”. The “improvement in TEWL, difference between ambroxol and control (DMSO only) curves” value in the data set on human (adult male) skin (20 microliter on about 2 cm^2 upper thigh skin, maintained after the burst over the remaining course) is reported as 4-6 g/m^2-h. In the data set with human (adult male) skin (upper thigh), the “period of the rapid burst of skin barrier healing” value is reported as “approximately 30 minutes” and the “time post-application of sudden drop in TEWL” value is listed as “about 60 minutes”.
